The source of these data is patent US8053553B2, “Targeting host proteinases as a therapeutic strategy against viral and bacterial pathogens” (Socpra Sciences Sante Et Humaines, priority 2007, dated 2011).

For this assay, the target named is T1, furin (Homo sapiens, UniProt P09958).
T1 construct: made in house; host or cells: Drosophila S2 cells (Invitrogen expression system)
Kind of assay: biochemical. The conditions noted are these: furin, Pyr-RTKR-AMC substrate, read-out: Ki.

[1] abbreviates: alanine scanning mutagenesis of the H5 furin cleavage sequence (Table 2).
Setting [2] is: optimization of the inhibitory peptides (Table 3).

Read-outs that look alike come from different tables or passages of the source. Non-standard residues stand in square brackets, D forms with d. Residues, ends and D or L forms follow the SMILES beside them. Sar = CNCC(=O)O

T1 sequence (P09958 108-794 limits assumed): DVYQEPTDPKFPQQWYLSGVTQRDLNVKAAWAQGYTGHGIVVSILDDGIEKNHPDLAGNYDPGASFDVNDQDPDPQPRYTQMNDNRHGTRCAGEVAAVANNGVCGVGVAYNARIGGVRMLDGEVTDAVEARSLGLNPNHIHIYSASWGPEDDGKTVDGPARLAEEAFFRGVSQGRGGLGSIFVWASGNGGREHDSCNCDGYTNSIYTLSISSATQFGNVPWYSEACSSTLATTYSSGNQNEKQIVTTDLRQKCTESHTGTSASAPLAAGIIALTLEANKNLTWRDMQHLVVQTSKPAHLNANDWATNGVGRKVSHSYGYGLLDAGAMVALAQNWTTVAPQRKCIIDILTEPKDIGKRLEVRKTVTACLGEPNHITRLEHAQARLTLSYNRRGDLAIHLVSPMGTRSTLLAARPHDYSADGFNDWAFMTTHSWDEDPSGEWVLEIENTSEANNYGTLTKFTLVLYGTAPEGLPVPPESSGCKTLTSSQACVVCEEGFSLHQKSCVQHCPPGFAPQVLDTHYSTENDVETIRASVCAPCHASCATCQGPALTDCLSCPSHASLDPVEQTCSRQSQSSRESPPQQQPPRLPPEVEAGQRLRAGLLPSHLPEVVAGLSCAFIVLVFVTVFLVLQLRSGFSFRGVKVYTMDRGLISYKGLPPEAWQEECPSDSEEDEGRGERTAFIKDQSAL

With `C[C@H](NC(=O)[C@H](C)NC(=O)[C@@H](N)[C@@H](C)O)C(=O)N[C@@H](CCC(=O)O)C(=O)N[C@@H](CCCNC(=N)N)C(=O)N[C@@H](CCCNC(=N)N)C(=O)N[C@@H](CCCNC(=N)N)C(=O)N[C@@H](CCCCN)C(=O)N[C@@H](CCCCN)C(=O)N[C@@H](CCCNC(=N)N)C(=O)NCC(N)=O` (H-TAAERRRKKRG-NH2), the Ki under setting [1] is greater than 100 nM.

Consider `CC(C)[C@H](NC(=O)[C@H](CCCNC(=N)N)NC(=O)[C@H](CCCCN)NC(=O)[C@H](CCCCN)NC(=O)[C@H](CCCNC(=N)N)NC(=O)[C@H](CCCNC(=N)N)NC(=O)[C@H](CCCNC(=N)N)NC(=O)[C@H](CCC(=O)O)NC(=O)[C@H](C)NC(=O)[C@H](C)NC(=O)[C@@H](N)[C@@H](C)O)C(N)=O` (H-TAAERRRKKRV-NH2), for which the inhibitory constant (Ki) under setting [1] was greater than 100 nM.

For the compound `C[C@H](NC(=O)[C@H](C)NC(=O)[C@@H](N)[C@@H](C)O)C(=O)N[C@@H](CCC(=O)O)C(=O)N[C@@H](CCCNC(=N)N)C(=O)N[C@@H](CCCNC(=N)N)C(=O)N[C@@H](CCCNC(=N)N)C(=O)N[C@@H](CCCCN)C(=O)N[C@@H](CCCCN)C(=O)N[C@@H](CCCNC(=N)N)C(=O)N(C)CC(N)=O` (H-TAAERRRKKR[Sar]-NH2), the Ki under setting [1] is greater than 100 nM.

In the case of `C[C@H](NC(=O)[C@@H](N)[C@@H](C)O)C(=O)N[C@@H](CCCNC(=N)N)C(=O)N[C@@H](CCC(=O)O)C(=O)N[C@@H](CCCNC(=N)N)C(=O)N[C@@H](CCCNC(=N)N)C(=O)N[C@@H](CCCNC(=N)N)C(=O)N[C@@H](CCCCN)C(=O)N[C@@H](CCCCN)C(=O)N[C@@H](CCCNC(=N)N)C(N)=O` (H-TARERRRKKR-NH2), the Ki under setting [1] is greater than 100 nM.

As to `C[C@H](NC(=O)[C@@H](N)[C@@H](C)O)C(=O)N[C@@H](CCCNC(=N)N)C(=O)N[C@@H](CCC(=O)O)C(=O)N[C@@H](CCCNC(=N)N)C(=O)N[C@@H](CCCNC(=N)N)C(=O)N[C@@H](CCCNC(=N)N)C(=O)N[C@@H](CCCCN)C(=O)N[C@@H](CCCCN)C(=O)N[C@@H](CCCNC(=N)N)C(=O)N[C@@H](CO)C(N)=O` (H-TARERRRKKRS-NH2), the inhibition constant (Ki) under setting [1] is greater than 100 nM.

On to `CC(C)[C@H](NC(=O)[C@H](CCCNC(=N)N)NC(=O)[C@H](CCCCN)NC(=O)[C@H](CCCCN)NC(=O)[C@H](CCCNC(=N)N)NC(=O)[C@H](CCCNC(=N)N)NC(=O)[C@H](CCCNC(=N)N)NC(=O)[C@H](CCC(=O)O)NC(=O)[C@H](CCCNC(=N)N)NC(=O)[C@H](C)NC(=O)[C@@H](N)[C@@H](C)O)C(N)=O` (H-TARERRRKKRV-NH2), for which the Ki under setting [1] is greater than 100 nM.

For `C[C@H](NC(=O)[C@H](C)NC(=O)[C@@H]1CCCN1C(=O)[C@@H](N)[C@@H](C)O)C(=O)N[C@@H](C)C(=O)N[C@@H](CCCNC(=N)N)C(=O)N[C@@H](CCCNC(=N)N)C(=O)N[C@@H](CCCCN)C(=O)N[C@@H](CCCCN)C(=O)N[C@@H](CCCNC(=N)N)C(N)=O` (H-TPAAARRKKR-NH2), under setting [1], the Ki is greater than 100 nM.

For the compound `C[C@H](NC(=O)[C@H](C)NC(=O)[C@@H]1CCCN1C(=O)[C@@H](N)[C@@H](C)O)C(=O)N[C@@H](C)C(=O)N[C@@H](CCCNC(=N)N)C(=O)N[C@@H](CCCNC(=N)N)C(=O)N[C@@H](CCCCN)C(=O)N[C@@H](CCCCN)C(=O)N[C@@H](CCCNC(=N)N)C(=O)NCC(N)=O` (H-TPAAARRKKRG-NH2), the inhibition constant Ki under setting [1] was greater than 100 nM.

Regarding `CC(C)[C@H](NC(=O)[C@H](CCCNC(=N)N)NC(=O)[C@H](CCCCN)NC(=O)[C@H](CCCCN)NC(=O)[C@H](CCCNC(=N)N)NC(=O)[C@H](CCCNC(=N)N)NC(=O)[C@H](C)NC(=O)[C@H](C)NC(=O)[C@H](C)NC(=O)[C@@H]1CCCN1C(=O)[C@@H](N)[C@@H](C)O)C(N)=O` (H-TPAAARRKKRV-NH2), the inhibitory constant (Ki) under setting [1] is greater than 100 nM.

For the compound `C[C@H](NC(=O)[C@H](C)NC(=O)[C@@H]1CCCN1C(=O)[C@@H](N)[C@@H](C)O)C(=O)N[C@@H](C)C(=O)N[C@@H](CCCNC(=N)N)C(=O)N[C@@H](CCCNC(=N)N)C(=O)N[C@@H](CCCCN)C(=O)N[C@@H](CCCCN)C(=O)N[C@@H](CCCNC(=N)N)C(=O)N(C)CC(N)=O` (H-TPAAARRKKR[Sar]-NH2), the Ki under setting [1] was greater than 100 nM.

For `C[C@H](NC(=O)[C@H](C)NC(=O)[C@@H]1CCCN1C(=O)[C@@H](N)[C@@H](C)O)C(=O)N[C@@H](CCCNC(=N)N)C(=O)N[C@@H](CCCNC(=N)N)C(=O)N[C@@H](CCCNC(=N)N)C(=O)N[C@@H](CCCCN)C(=O)N[C@@H](CCCCN)C(=O)N[C@@H](CCCNC(=N)N)C(N)=O` (H-TPAARRRKKR-NH2), the Ki under setting [1] is greater than 100 nM.

Turning to `C[C@H](NC(=O)[C@H](C)NC(=O)[C@@H]1CCCN1C(=O)[C@@H](N)[C@@H](C)O)C(=O)N[C@@H](CCCNC(=N)N)C(=O)N[C@@H](CCCNC(=N)N)C(=O)N[C@@H](CCCNC(=N)N)C(=O)N[C@@H](CCCCN)C(=O)N[C@@H](CCCCN)C(=O)N[C@@H](CCCNC(=N)N)C(=O)NCC(N)=O` (H-TPAARRRKKRG-NH2), under setting [1], the Ki is greater than 100 nM.

With `CC(C)[C@H](NC(=O)[C@H](CCCNC(=N)N)NC(=O)[C@H](CCCCN)NC(=O)[C@H](CCCCN)NC(=O)[C@H](CCCNC(=N)N)NC(=O)[C@H](CCCNC(=N)N)NC(=O)[C@H](CCCNC(=N)N)NC(=O)[C@H](C)NC(=O)[C@H](C)NC(=O)[C@@H]1CCCN1C(=O)[C@@H](N)[C@@H](C)O)C(N)=O` (H-TPAARRRKKRV-NH2), the inhibition constant (Ki) under setting [1] was greater than 100 nM.

With `C[C@H](NC(=O)[C@H](C)NC(=O)[C@@H]1CCCN1C(=O)[C@@H](N)[C@@H](C)O)C(=O)N[C@@H](CCCNC(=N)N)C(=O)N[C@@H](CCCNC(=N)N)C(=O)N[C@@H](CCCNC(=N)N)C(=O)N[C@@H](CCCCN)C(=O)N[C@@H](CCCCN)C(=O)N[C@@H](CCCNC(=N)N)C(=O)N(C)CC(N)=O` (H-TPAARRRKKR[Sar]-NH2), under setting [1], the Ki is greater than 100 nM.

On to `C[C@H](NC(=O)[C@@H]1CCCN1C(=O)[C@@H](N)[C@@H](C)O)C(=O)N[C@@H](CCC(=O)O)C(=O)N[C@@H](CCCNC(=N)N)C(=O)N[C@@H](CCCNC(=N)N)C(=O)N[C@@H](CCCNC(=N)N)C(=O)N[C@@H](CCCCN)C(=O)N[C@@H](CCCCN)C(=O)N[C@@H](CCCNC(=N)N)C(N)=O` (H-TPAERRRKKR-NH2), for which the inhibition constant Ki under setting [1] was greater than 100 nM.

For `CC(C)[C@H](NC(=O)[C@H](CCCNC(=N)N)NC(=O)[C@H](CCCCN)NC(=O)[C@H](CCCCN)NC(=O)[C@H](CCCNC(=N)N)NC(=O)[C@H](CCCNC(=N)N)NC(=O)[C@H](CCCNC(=N)N)NC(=O)[C@H](CCC(=O)O)NC(=O)[C@H](C)NC(=O)[C@@H]1CCCN1C(=O)[C@@H](N)[C@@H](C)O)C(N)=O` (H-TPAERRRKKRV-NH2), under setting [1], the Ki was greater than 100 nM.

As for `C[C@H](NC(=O)[C@@H]1CCCN1C(=O)[C@@H](N)[C@@H](C)O)C(=O)N[C@@H](CCC(=O)O)C(=O)N[C@@H](CCCNC(=N)N)C(=O)N[C@@H](CCCNC(=N)N)C(=O)N[C@@H](CCCNC(=N)N)C(=O)N[C@@H](CCCCN)C(=O)N[C@@H](CCCCN)C(=O)N[C@@H](CCCNC(=N)N)C(=O)N(C)CC(N)=O` (H-TPAERRRKKR[Sar]-NH2), under setting [1], the Ki was greater than 100 nM.

With `CSC[C@H](NC(=O)[C@H](CCCNC(=N)N)NC(=O)[C@H](CCCCN)NC(=O)[C@H](CCCCN)NC(=O)[C@H](CCCNC(=N)N)NC(=O)[C@H](CCCNC(=N)N)NC(=O)[C@H](CCCNC(=N)N)NC(=O)[C@H](C)NC(=O)[C@H](CCCNC(=N)N)NC(=O)[C@H](CCC(N)=O)NC(=O)[C@@H]1CCCN1C(=O)[C@@H](N)[C@@H](C)O)C(N)=O` (H-TPQRARRRKKRC(Me)-NH2), under setting [2], the Ki is 93 nM.

For `C[C@H](NC(=O)[C@H](CCCNC(=N)N)NC(=O)[C@H](CCC(N)=O)NC(=O)[C@@H]1CCCN1C(=O)[C@@H](N)[C@@H](C)O)C(=O)N[C@@H](CCCNC(=N)N)C(=O)N[C@@H](CCCNC(=N)N)C(=O)N[C@@H](CCCNC(=N)N)C(=O)N[C@@H](CCCCN)C(=O)N[C@@H](CCCCN)C(=O)N[C@@H](CCCNC(=N)N)C(=O)N[C@@H](CS)C(N)=O` (H-TPQRARRRKKRC-NH2), the Ki under setting [2] is greater than 100 nM.

As for `C[C@H](NC(=O)[C@H](CCCNC(=N)N)NC(=O)[C@H](CCC(N)=O)NC(=O)[C@@H]1CCCN1C(=O)[C@@H](N)[C@@H](C)O)C(=O)N[C@@H](CCCNC(=N)N)C(=O)N[C@@H](CCCNC(=N)N)C(=O)N[C@@H](CCCNC(=N)N)C(=O)N[C@@H](CCCCN)C(=O)N[C@@H](CCCCN)C(=O)N[C@@H](CCCNC(=N)N)C(=O)N[C@@H](CC(=O)O)C(N)=O` (H-TPQRARRRKKRD-NH2), the Ki under setting [2] was 50 nM.

Consider `C[C@H](NC(=O)[C@H](CCCNC(=N)N)NC(=O)[C@H](CCC(N)=O)NC(=O)[C@@H]1CCCN1C(=O)[C@@H](N)[C@@H](C)O)C(=O)N[C@@H](CCCNC(=N)N)C(=O)N[C@@H](CCCNC(=N)N)C(=O)N[C@@H](CCCNC(=N)N)C(=O)N[C@@H](CCCCN)C(=O)N[C@@H](CCCCN)C(=O)N[C@@H](CCCNC(=N)N)C(=O)N[C@@H](CCC(=O)O)C(N)=O` (H-TPQRARRRKKRE-NH2), for which the Ki under setting [2] came to 103 nM.

`C[C@H](NC(=O)[C@H](CCCNC(=N)N)NC(=O)[C@H](CCC(N)=O)NC(=O)[C@@H]1CCCN1C(=O)[C@@H](N)[C@@H](C)O)C(=O)N[C@@H](CCCNC(=N)N)C(=O)N[C@@H](CCCNC(=N)N)C(=O)N[C@@H](CCCNC(=N)N)C(=O)N[C@@H](CCCCN)C(=O)N[C@@H](CCCCN)C(=O)N[C@@H](CCCNC(=N)N)C(=O)N[C@@H](Cc1ccccc1)C(N)=O` (H-TPQRARRRKKRF-NH2): the inhibitory constant (Ki) under setting [2] came to 44 nM.

With `C[C@H](NC(=O)[C@H](CCCNC(=N)N)NC(=O)[C@H](CCC(N)=O)NC(=O)[C@@H]1CCCN1C(=O)[C@@H](N)[C@@H](C)O)C(=O)N[C@@H](CCCNC(=N)N)C(=O)N[C@@H](CCCNC(=N)N)C(=O)N[C@@H](CCCNC(=N)N)C(=O)N[C@@H](CCCCN)C(=O)N[C@@H](CCCCN)C(=O)N[C@@H](CCCNC(=N)N)C(=O)N[C@@H](Cc1c[nH]cn1)C(N)=O` (H-TPQRARRRKKRH-NH2), the inhibitory constant (Ki) under setting [2] was greater than 100 nM.

For `CC[C@H](C)[C@H](NC(=O)[C@H](CCCNC(=N)N)NC(=O)[C@H](CCCCN)NC(=O)[C@H](CCCCN)NC(=O)[C@H](CCCNC(=N)N)NC(=O)[C@H](CCCNC(=N)N)NC(=O)[C@H](CCCNC(=N)N)NC(=O)[C@H](C)NC(=O)[C@H](CCCNC(=N)N)NC(=O)[C@H](CCC(N)=O)NC(=O)[C@@H]1CCCN1C(=O)[C@@H](N)[C@@H](C)O)C(N)=O` (H-TPQRARRRKKRI-NH2), the Ki under setting [2] is greater than 100 nM.

One may read the Ki as a measure of affinity in units of concentration, obtained from inhibition or displacement.
